Measurements reported in paper PMC6044955 (ACS Omega, 2017).

Key:
Format in all cases: cell-based
hα9α10 nAChR = hα9α10 nAChR (Homo sapiens, UniProt Q9GZZ6+Q9UGM1)
hα3β2 nAChR = hα3β2 nAChR (Homo sapiens, UniProt P17787+P32297)
hα3β4 nAChR = hα3β4 nAChR (Homo sapiens, UniProt P30926+P32297)
Chain of hα3β4 nAChR (P32297 32-505): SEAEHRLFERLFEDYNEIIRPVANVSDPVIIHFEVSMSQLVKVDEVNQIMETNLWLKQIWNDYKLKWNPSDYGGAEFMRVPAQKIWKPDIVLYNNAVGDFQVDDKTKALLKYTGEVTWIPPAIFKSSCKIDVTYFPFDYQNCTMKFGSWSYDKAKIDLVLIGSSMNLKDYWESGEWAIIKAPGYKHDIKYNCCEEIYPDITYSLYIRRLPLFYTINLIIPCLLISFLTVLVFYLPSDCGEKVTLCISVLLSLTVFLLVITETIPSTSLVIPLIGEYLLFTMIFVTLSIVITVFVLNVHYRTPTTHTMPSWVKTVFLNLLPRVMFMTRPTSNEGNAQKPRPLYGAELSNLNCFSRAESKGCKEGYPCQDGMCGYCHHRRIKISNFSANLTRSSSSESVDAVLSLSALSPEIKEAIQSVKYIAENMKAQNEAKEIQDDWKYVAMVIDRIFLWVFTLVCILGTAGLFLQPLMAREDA
Chain of hα3β4 nAChR (P30926 22-498): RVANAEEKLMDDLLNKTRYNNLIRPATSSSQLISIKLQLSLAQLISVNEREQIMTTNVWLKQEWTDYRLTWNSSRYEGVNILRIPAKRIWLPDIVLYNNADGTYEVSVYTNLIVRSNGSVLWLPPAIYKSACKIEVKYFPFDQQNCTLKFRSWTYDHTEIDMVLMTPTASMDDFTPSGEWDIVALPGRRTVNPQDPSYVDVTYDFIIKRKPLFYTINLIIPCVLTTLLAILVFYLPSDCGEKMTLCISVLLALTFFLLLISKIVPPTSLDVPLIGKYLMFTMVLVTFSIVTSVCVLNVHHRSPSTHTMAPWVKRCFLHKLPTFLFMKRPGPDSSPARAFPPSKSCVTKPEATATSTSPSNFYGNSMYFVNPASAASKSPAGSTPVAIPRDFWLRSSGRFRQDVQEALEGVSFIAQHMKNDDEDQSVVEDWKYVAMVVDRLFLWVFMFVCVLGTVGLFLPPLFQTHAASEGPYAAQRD

Chain of hα3β2 nAChR (P32297 32-505): as the sequence (P32297 32-505) above
Chain of hα3β2 nAChR (P17787 26-502): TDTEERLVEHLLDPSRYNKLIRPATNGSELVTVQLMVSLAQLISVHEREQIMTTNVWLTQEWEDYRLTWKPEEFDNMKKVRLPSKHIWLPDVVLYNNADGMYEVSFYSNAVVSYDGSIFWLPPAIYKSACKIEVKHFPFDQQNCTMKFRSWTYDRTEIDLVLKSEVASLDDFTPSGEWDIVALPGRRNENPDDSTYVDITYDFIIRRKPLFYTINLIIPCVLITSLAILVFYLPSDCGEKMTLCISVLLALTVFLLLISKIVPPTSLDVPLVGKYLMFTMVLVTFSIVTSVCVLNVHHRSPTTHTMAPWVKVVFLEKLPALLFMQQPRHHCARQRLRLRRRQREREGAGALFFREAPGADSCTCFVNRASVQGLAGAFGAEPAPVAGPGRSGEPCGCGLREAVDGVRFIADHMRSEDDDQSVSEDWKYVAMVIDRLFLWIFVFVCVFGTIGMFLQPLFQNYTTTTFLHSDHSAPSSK
Chain of hα9α10 nAChR (Q9UGM1 26-479 limits assumed): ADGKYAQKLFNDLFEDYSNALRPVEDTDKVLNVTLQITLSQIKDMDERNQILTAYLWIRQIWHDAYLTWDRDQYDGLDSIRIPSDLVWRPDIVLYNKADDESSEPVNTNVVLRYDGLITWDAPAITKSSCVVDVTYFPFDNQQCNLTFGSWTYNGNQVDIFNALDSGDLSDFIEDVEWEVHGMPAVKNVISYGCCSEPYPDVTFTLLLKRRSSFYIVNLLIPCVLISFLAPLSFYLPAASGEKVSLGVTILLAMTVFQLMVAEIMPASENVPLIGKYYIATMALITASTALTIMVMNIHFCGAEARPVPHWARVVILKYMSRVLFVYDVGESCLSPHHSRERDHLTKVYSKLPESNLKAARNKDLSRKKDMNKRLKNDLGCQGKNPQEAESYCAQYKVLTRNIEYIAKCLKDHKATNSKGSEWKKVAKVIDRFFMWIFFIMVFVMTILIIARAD
Chain of hα9α10 nAChR (Q9GZZ6 25-450): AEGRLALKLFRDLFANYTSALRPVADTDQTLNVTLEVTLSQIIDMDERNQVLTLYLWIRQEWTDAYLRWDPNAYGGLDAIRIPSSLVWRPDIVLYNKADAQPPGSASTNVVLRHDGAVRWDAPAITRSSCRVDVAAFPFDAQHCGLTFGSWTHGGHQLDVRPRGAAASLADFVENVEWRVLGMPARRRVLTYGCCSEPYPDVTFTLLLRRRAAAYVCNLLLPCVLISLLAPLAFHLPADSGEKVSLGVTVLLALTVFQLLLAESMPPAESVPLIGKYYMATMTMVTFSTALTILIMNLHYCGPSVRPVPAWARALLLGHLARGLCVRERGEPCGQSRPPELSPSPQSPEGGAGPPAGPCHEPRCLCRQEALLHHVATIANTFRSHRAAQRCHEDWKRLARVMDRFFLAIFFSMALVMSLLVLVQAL

Row | Substance | Inhibition of ACh-evoked current at hα9α10 nAChR (hα9α10 nAChR) | Inhibition of ACh-evoked current at hα3β2 nAChR (hα3β2 nAChR) | Inhibition of the ACh-evoked current amplitude at hα3β2 nAChR (hα3β2 nAChR) [%] | Inhibition of the ACh-evoked current amplitude at hα3β4 nAChR (hα3β4 nAChR) [%]
1 | α-conotoxin Vc1.1 | complete inhibition | complete inhibition | – | –
2 | α-conotoxin BuIA | – | – | > 90 | > 90
